Here are results for three compounds from patent US20040019121A1, “Protein prenyl transferase inhibitors in the treatment of neuroinflammatory disease” (priority 2000, published 2004).

The conditions of series [1]: mice, daily injections of 25 mg/kg i.p.; cited from earlier work.
Series [2] has as its system brain endothelial cell monolayers (GP8/3.9). The series is described as follows: T-lymphocyte transendothelial migration through brain endothelial cell monolayers. It counts as cell-based, rat. How it is done:
(§1) The immortalised Lewis rat brain endothelial cell line GP8/3.9 (Greenwood et al., 1996) was maintained in Ham's F-10 medium supplemented with 17.5% FCS, 7.5 μg/ml endothelial cell growth supplement, 80 μg/ml heparin, 2 mM glutamine, 0.5 μg/ml vitamin C, 100 U/ml penicillin and 100 μg/ml streptomycin.
Lewis rat T-lymphocyte cell lines specific for purified myelin basic protein were prepared as previously described (Pryce et al, 1997). Briefly, lymph nodes were collected from bovine MBP-immunised rats and the T-lymphocytes propagated by periodically alternating antigen activation with IL-2 stimulation. The cell lines express the marker of the CD4^+ T cell subset, are CD45RC^low and recognise MBP in the molecular context of MHC class II determinants (Pryce et al, 1997).
The ability of the immortalised cells to support the transendothelial migration of antigen specific T-lymphocytes was determined using a well-characterised assay as described extensively elsewhere (Adamson et al., 1999 and http://www.ucl.ac.uk/ioo/video/ sequence.avi) Briefly, T-lymphocytes were added (2×10^5 cells/well) to 24 well plates containing endothelial cell monolayers. Lymphocytes were allowed to settle and migrate over a 4 h period. To evaluate the level of migration co-cultures were placed on the stage of a phase-contrast inverted microscope housed in a temperature controlled (37° C.), 5% CO2 gassed chamber (Zeiss, Herts, U.K.). A 200×200 μm field was randomly chosen and recorded for 10 min spanning the 4 h time point using a camera linked to a time-lapse video recorder. Recordings were replayed at 160× normal speed and lymphocytes identified and counted which had either adhered to the surface of the monolayer or that had migrated through the monolayer. Lymphocytes on the surface of the monolayer were identified by their highly refractive morphology (phase-bright) and rounded or partially spread appearance. In contrast cells that had migrated through the monolayer were phase-dark, highly attenuated and were seen to probe under the endothelial cells in a distinctive manner (Pryce et al, 1997; Adamson et al, 1999: Etienne et al, 2000). All other data were expressed as a percentage of the control migrations. A minimum of three independent experiments using a minimum of 6 wells per assay were performed. The results are expressed as the means±SEM and significant differences between groups determined by Student±s t-test.

In another series the test system is brain endothelial cells. The series is described as follows: Adhesion of peripheral lymph node T-lymphocytes to brain endothelia. It counts as cell-based, rat. The note with it: 10 μM. Here is the method: as §1
Adhesion assays were carried out as previously described (Pryce et. al., 1994; Adamson et al., 1999). Briefly, peripheral lymph node-derived cells (PLNC) were isolated and T-lymphocytes obtained after purification on nylon wool columns. These cells which represent non-antigen activated T-lymphocytes are therefore non-migratory but highly adhesive when activated with the mitogen concanavalin A (Pryce et al., 1994, Greenwood and Calder 1993; Male et al., 1994 ). PLNC were activated for 24 h with type V concanavalin A, washed twice in HBSS, and cells labelled with 3 μCi [^3H]-deoxy glucose per 10^6 cells in HBSS for 90 min at 37° C. After washing the cells three times with HBSS they were resuspended in RPMI 1640 medium containing 10% FCS. Endothelial monolayers grown on 96 well plates were prepared by removing the culture medium and washing the cells four times with HBSS. 200 μl of [^3H]-labelled PLNC at a concentration of 1×10^6/ml were then added to each well and incubated at 37° C. for 1.5 h. In each assay, β-emissions from each of 6 replicate blank wells were determined to provide a value for the total amount of radioactivity added per well and to allow calculation of the specific activity of the cells. After incubation, non-adherent cells were removed with four separate washes from the four poles of the well with 37° C. HBSS as previously described (Pryce et al, 1994: Adamson et al., 1999). Adherent PLNC were lysed with 2% SDS, the lysate removed, scintillant added and radioactivity quantitated by spectrometry. Results are expressed as the means±SEM between groups determined by Student's t-test.

In the next series the test system is Rho protein. The series is described as follows: Rho protein association with brain endothelial cell membranes (Western blot). It counts as cell-based, rat. To be noted: C3-transferase treatment of brain endothelial cells. How it is done: as §1
Ice-cold lysis buffer containing 10 mM Tris-HCl pH7.5, 5 mM MgCl2, 1 mM DTT and 1 mM PMSF was added to cells and incubated on ice for 10 min. Cells were subsequently homogenised and centrifuged at 5000 g for 10 min to remove nuclei. Supernatants were then centrifuged at 100,000 g in a Beckman Ultracentrifuge for 30 min to obtain crude membranes. Membrane pellets were washed with buffer containing 50 mM Tris-HCl pH7.5, 50 mM NaCl, 5 mM MgCl2, 1 mM DTT and 1 mM PMSF and re-centrifuged at 100,000 g for 30 min. Membrane pellets were then resuspended in sample buffer and proteins resolved on 12.5% SDS-PAGE gels. Proteins were electroblotted on nitrocellulose membranes and immunblotted with anti-Rho polyclonal antibody (Santa Cruz, Wilts, UK). Rho proteins within membrane fractions were visualised following incubation with a 1:15,000 dilution of goat anti-rabbit-HRP (Pierce, Chester, UK) and ECL development (Amersham, Bucks,UK).
Isoprenylation of Rho proteins are essential for their efficient association with cell membranes (Adamson et al, 1992).

Where [3] appears, read: 10 μM, brain EC treated 24 h prior to and during 4 h co-culture, mean±SEM.
The mark [4] stands for this setting: 10 μM, brain EC treated 48 h prior to and during 4 h co-culture, mean±SEM.
Where [5] appears, read: 24 h treatment plus 90 min adhesion assay.
Where [6] appears, read: 48 h treatment plus 90 min adhesion assay.

Regarding `COC(=O)[C@H](CCSC)NC(=O)c1ccc(NC[C@@H](N)CS)cc1-c1ccccc1` [FTI-277], the “time required to obtain steady state plasma concentrations” value in series [1] was 3 days. Further, the transendothelial lymphocyte migration entry in series [2] (setting [3]) was “did not result in a significant alteration”; in series [2] (setting [4]), 77.7±4.9 % of control migration. In addition, the “T-lymphocyte adhesion to brain endothelial cells” value in the series on brain endothelial cells (setting [5]) and with brain endothelial cells (setting [6]) was “did not have any significant effect” in each case.
Consider C3 transferase, for which, in series [2] (C3 transferase treatment of brain EC, n=12), the transendothelial lymphocyte migration was 18.4±4.1 % of control values. Also, the “subcellular distribution of Rho proteins” value with Rho protein is “did not affect”.
Turning to `COC(=O)[C@H](CC(C)C)NC(=O)c1ccc(NC[C@@H](N)CS)cc1-c1cccc2ccccc12` [GGTI-298], the transendothelial lymphocyte migration is on record as 73.5±6.0 % of control migration in series [2] (setting [3]) and 51.6±3.1 % of control migration in series [2] (setting [4]). The “T-lymphocyte adhesion to brain endothelial cells” value with brain endothelial cells (setting [5]) and in the series on brain endothelial cells (setting [6]) was “did not have any significant effect” in each case.
